One block for each compound: values may come before it.
How the values were obtained:
Nucleic Acid [1] = assay: Ratio of drug level in tumor to brain in mouse S180 cells xenografted Kunming mouse at 370 kBq/0.1 mL, iv after 30 mins by gamma counting; assay type: ADME, organism-based, CCRF S-180; conditions: in vivo, 0.5 h
Kidney [2] = assay: Biodistribution in mouse S180 cells xenografted Kunming mouse kidney at 370 kBq/0.1 mL, iv after 5 mins by gamma counting; assay type: ADME, organism-based, CCRF S-180; conditions: in vivo
Spleen [3] = assay: Biodistribution in mouse S180 cells xenografted Kunming mouse spleen at 370 kBq/0.1 mL, iv after 5 mins by gamma counting; assay type: ADME, organism-based, CCRF S-180; conditions: in vivo
Nucleic Acid [4] = assay: Ratio of drug level in tumor to muscle in mouse S180 cells xenografted Kunming mouse at 370 kBq/0.1 mL, iv after 120 mins by gamma counting; assay type: ADME, organism-based, CCRF S-180; conditions: in vivo, 2 h
Kidney [5] = assay: Biodistribution in mouse S180 cells xenografted Kunming mouse kidney at 370 kBq/0.1 mL, iv after 15 mins by gamma counting; assay type: ADME, organism-based, CCRF S-180; conditions: in vivo, 0.25 h
Kidney [6] = assay: Biodistribution in mouse S180 cells xenografted Kunming mouse kidney at 370 kBq/0.1 mL, iv after 120 mins by gamma counting; assay type: ADME, organism-based, CCRF S-180; conditions: in vivo, 2 h
Heart [7] = assay: Biodistribution in mouse S180 cells xenografted Kunming mouse heart at 370 kBq/0.1 mL, iv after 120 mins by gamma counting; assay type: ADME, organism-based, CCRF S-180; conditions: in vivo, 2 h
Blood [8] = assay: Biodistribution in mouse S180 cells xenografted Kunming mouse blood at 370 kBq/0.1 mL, iv after 5 mins by gamma counting; assay type: ADME, organism-based, CCRF S-180; conditions: in vivo
Plasma = assay: Metabolic stability in mouse plasma at 3.7 MBq after 1 to 2 hrs; assay type: ADME, cell-free
Nucleic Acid [9] = assay: Ratio of drug level in tumor to muscle in mouse S180 cells xenografted Kunming mouse at 370 kBq/0.1 mL, iv after 5 mins by gamma counting; assay type: ADME, organism-based, CCRF S-180; conditions: in vivo
Brain [10] = assay: Biodistribution in mouse S180 cells xenografted Kunming mouse brain at 370 kBq/0.1 mL, iv after 30 mins by gamma counting; assay type: ADME, organism-based, CCRF S-180; conditions: in vivo, 0.5 h
Blood [11] = assay: Biodistribution in mouse S180 cells xenografted Kunming mouse blood at 370 kBq/0.1 mL, iv after 120 mins by gamma counting; assay type: ADME, organism-based, CCRF S-180; conditions: in vivo, 2 h
Mus musculus [12] = assay: Biodistribution in mouse S180 cells xenografted Kunming mouse tumor at 370 kBq/0.1 mL, iv after 15 mins by gamma counting; assay type: ADME, organism-based, Neoplasm, CCRF S-180; conditions: in vivo, 0.25 h
Mus musculus [13] = assay: Biodistribution in mouse S180 cells xenografted Kunming mouse tumor at 370 kBq/0.1 mL, iv after 30 mins by gamma counting; assay type: ADME, organism-based, Neoplasm, CCRF S-180; conditions: in vivo, 0.5 h
Nucleic Acid [14] = assay: Ratio of drug level in tumor to brain in mouse S180 cells xenografted Kunming mouse at 370 kBq/0.1 mL, iv after 60 mins by gamma counting; assay type: ADME, organism-based, CCRF S-180; conditions: in vivo, 1 h
Nucleic Acid [15] = assay: Ratio of drug level in tumor to brain in mouse S180 cells xenografted Kunming mouse at 370 kBq/0.1 mL, iv after 120 mins by gamma counting; assay type: ADME, organism-based, CCRF S-180; conditions: in vivo, 2 h
Nucleic Acid [16] = assay: Ratio of drug level in tumor to muscle in mouse S180 cells xenografted Kunming mouse at 370 kBq/0.1 mL, iv after 60 mins by gamma counting; assay type: ADME, organism-based, CCRF S-180; conditions: in vivo, 1 h
Nucleic Acid [17] = assay: Ratio of drug level in tumor to muscle in mouse S180 cells xenografted Kunming mouse at 370 kBq/0.1 mL, iv after 15 mins by gamma counting; assay type: ADME, organism-based, CCRF S-180; conditions: in vivo, 0.25 h
Mus musculus [18] = assay: Biodistribution in mouse S180 cells xenografted Kunming mouse tumor at 370 kBq/0.1 mL, iv after 120 mins by gamma counting; assay type: ADME, organism-based, Neoplasm, CCRF S-180; conditions: in vivo, 2 h
Nucleic Acid [19] = assay: Ratio of drug level in tumor to blood in mouse S180 cells xenografted Kunming mouse at 370 kBq/0.1 mL, iv after 15 mins by gamma counting; assay type: ADME, organism-based, CCRF S-180; conditions: tumour, 0.25 h
Spleen [20] = assay: Biodistribution in mouse S180 cells xenografted Kunming mouse spleen at 370 kBq/0.1 mL, iv after 60 mins by gamma counting; assay type: ADME, organism-based, CCRF S-180; conditions: in vivo, 1 h
Muscle tissue [21] = assay: Biodistribution in mouse S180 cells xenografted Kunming mouse muscle at 370 kBq/0.1 mL, iv after 30 mins by gamma counting; assay type: ADME, organism-based, CCRF S-180; conditions: in vivo, 0.5 h
Liver = assay: Biodistribution in mouse S180 cells xenografted Kunming mouse liver at 370 kBq/0.1 mL, iv after 120 mins by gamma counting; assay type: ADME, organism-based, CCRF S-180; conditions: in vivo, 2 h
Nucleic Acid [22] = assay: Ratio of drug level in tumor to blood in mouse S180 cells xenografted Kunming mouse at 370 kBq/0.1 mL, iv after 5 mins by gamma counting; assay type: ADME, organism-based, CCRF S-180; conditions: tumour
Brain [23] = assay: Biodistribution in mouse S180 cells xenografted Kunming mouse brain at 370 kBq/0.1 mL, iv after 5 mins by gamma counting; assay type: ADME, organism-based, CCRF S-180; conditions: in vivo
Nucleic Acid [24] = assay: Ratio of drug level in tumor to blood in mouse S180 cells xenografted Kunming mouse at 370 kBq/0.1 mL, iv after 30 mins by gamma counting; assay type: ADME, organism-based, CCRF S-180; conditions: tumour, 0.5 h
CCRF S-180 = assay: Cellular uptake in mouse S180 cells relative to [18F]FDG; assay type: ADME, cell-based
Blood [25] = assay: Biodistribution in mouse S180 cells xenografted Kunming mouse blood at 370 kBq/0.1 mL, iv after 30 mins by gamma counting; assay type: ADME, organism-based, CCRF S-180; conditions: in vivo, 0.5 h
Heart [26] = assay: Biodistribution in mouse S180 cells xenografted Kunming mouse heart at 370 kBq/0.1 mL, iv after 60 mins by gamma counting; assay type: ADME, organism-based, CCRF S-180; conditions: in vivo, 1 h
Nucleic Acid [27] = assay: Ratio of drug level in tumor to blood in mouse S180 cells xenografted Kunming mouse at 370 kBq/0.1 mL, iv after 120 mins by gamma counting; assay type: ADME, organism-based, CCRF S-180; conditions: tumour, 2 h
Lung [28] = assay: Biodistribution in mouse S180 cells xenografted Kunming mouse lung at 370 kBq/0.1 mL, iv after 15 mins by gamma counting; assay type: ADME, organism-based, CCRF S-180; conditions: in vivo, 0.25 h
Mus musculus [29] = assay: Biodistribution in mouse S180 cells xenografted Kunming mouse tumor at 370 kBq/0.1 mL, iv after 5 mins by gamma counting; assay type: ADME, organism-based, Neoplasm, CCRF S-180; conditions: in vivo
Nucleic Acid [30] = assay: Ratio of drug level in tumor to muscle in mouse S180 cells xenografted Kunming mouse at 370 kBq/0.1 mL, iv after 30 mins by gamma counting; assay type: ADME, organism-based, CCRF S-180; conditions: in vivo, 0.5 h
Muscle tissue [31] = assay: Biodistribution in mouse S180 cells xenografted Kunming mouse muscle at 370 kBq/0.1 mL, iv after 60 mins by gamma counting; assay type: ADME, organism-based, CCRF S-180; conditions: in vivo, 1 h
[32] = Partition coefficient, log P of the compound; assay type: physicochemical; conditions: octanol/water
Nucleic Acid [33] = assay: Ratio of drug level in tumor to blood in mouse S180 cells xenografted Kunming mouse at 370 kBq/0.1 mL, iv after 60 mins by gamma counting; assay type: ADME, organism-based, CCRF S-180; conditions: tumour, 1 h
Muscle tissue [34] = assay: Biodistribution in mouse S180 cells xenografted Kunming mouse muscle at 370 kBq/0.1 mL, iv after 15 mins by gamma counting; assay type: ADME, organism-based, CCRF S-180; conditions: in vivo, 0.25 h
Brain [35] = assay: Biodistribution in mouse S180 cells xenografted Kunming mouse brain at 370 kBq/0.1 mL, iv after 120 mins by gamma counting; assay type: ADME, organism-based, CCRF S-180; conditions: in vivo, 2 h
Kidney [36] = assay: Biodistribution in mouse S180 cells xenografted Kunming mouse kidney at 370 kBq/0.1 mL, iv after 60 mins by gamma counting; assay type: ADME, organism-based, CCRF S-180; conditions: in vivo, 1 h
Kidney [37] = assay: Biodistribution in mouse S180 cells xenografted Kunming mouse kidney at 370 kBq/0.1 mL, iv after 30 mins by gamma counting; assay type: ADME, organism-based, CCRF S-180; conditions: in vivo, 0.5 h
Nucleic Acid [38] = assay: Ratio of drug level in tumor to brain in mouse S180 cells xenografted Kunming mouse at 370 kBq/0.1 mL, iv after 15 mins by gamma counting; assay type: ADME, organism-based, CCRF S-180; conditions: in vivo, 0.25 h
Lung [39] = assay: Biodistribution in mouse S180 cells xenografted Kunming mouse lung at 370 kBq/0.1 mL, iv after 120 mins by gamma counting; assay type: ADME, organism-based, CCRF S-180; conditions: in vivo, 2 h

Ratio (Nucleic Acid [1]): 2.23
Drug uptake (Kidney [2]): 7.93 % ID/g
Drug uptake (Spleen [3]): 4.66 % ID/g
Ratio (Nucleic Acid [4]): 1.09
Drug uptake (Kidney [5]): 5.04 % ID/g
Drug uptake (Kidney [6]): 1.92 % ID/g
Drug uptake (Heart [7]): 2.59 % ID/g
Drug uptake (Blood [8]): 4.83 % ID/g
Stability (Plasma): Stable
Ratio (Nucleic Acid [9]): 0.47
Drug uptake (Brain [10]): 2.47 % ID/g
Drug uptake (Blood [11]): 2.95 % ID/g
Drug uptake (Mus musculus [12]): 4.37 % ID/g
Drug uptake (Mus musculus [13]): 5.51 % ID/g
Ratio (Nucleic Acid [14]): 1.53
Ratio (Nucleic Acid [15]): 1.61
Ratio (Nucleic Acid [16]): 1.28
Ratio (Nucleic Acid [17]): 1.14
Drug uptake (Mus musculus [18]): 2.88 % ID/g
Ratio (Nucleic Acid [19]): 0.94
Drug uptake (Spleen [20]): 2.82 % ID/g
Drug uptake (Muscle tissue [21]): 3.05 % ID/g
Drug uptake (Liver): 1.84 % ID/g
Ratio (Nucleic Acid [22]): 0.39
Drug uptake (Brain [23]): 3.17 % ID/g
Ratio (Nucleic Acid [24]): 1.23
fold change (FC) (CCRF S-180): 2
Drug uptake (Blood [25]): 4.49 % ID/g
Drug uptake (Heart [26]): 3.46 % ID/g
Ratio (Nucleic Acid [27]): 0.98
Drug uptake (Lung [28]): 3.79 % ID/g
Drug uptake (Mus musculus [29]): 1.88 % ID/g
Ratio (Nucleic Acid [30]): 1.81
Drug uptake (Muscle tissue [31]): 2.31 % ID/g
logP [32]: 0.68
Ratio (Nucleic Acid [33]): 0.81
Drug uptake (Muscle tissue [34]): 3.84 % ID/g
Drug uptake (Brain [35]): 1.79 % ID/g
Drug uptake (Kidney [36]): 2.58 % ID/g
Drug uptake (Kidney [37]): 3.28 % ID/g
Ratio (Nucleic Acid [38]): 1.62
Drug uptake (Lung [39]): 2.54 % ID/g
SMILES: Cc1cc(NCC[18F])n2ncc(C#N)c2n1

Ratio (Nucleic Acid [1]): 10.44
Drug uptake (Kidney [2]): 17.7 % ID/g
Drug uptake (Spleen [3]): 4.54 % ID/g
Ratio (Nucleic Acid [4]): 0.77
Drug uptake (Kidney [5]): 8.45 % ID/g
Drug uptake (Kidney [6]): 0.74 % ID/g
Drug uptake (Heart [7]): 0.12 % ID/g
Drug uptake (Blood [8]): 5.23 % ID/g
Stability (Plasma): Stable
Ratio (Nucleic Acid [9]): 0.59
Drug uptake (Brain [10]): 0.12 % ID/g
Drug uptake (Blood [11]): 0.09 % ID/g
Drug uptake (Mus musculus [12]): 1.99 % ID/g
Drug uptake (Mus musculus [13]): 1.24 % ID/g
Ratio (Nucleic Acid [14]): 8.69
Ratio (Nucleic Acid [15]): 5.13
Ratio (Nucleic Acid [16]): 1.57
Ratio (Nucleic Acid [17]): 0.96
Drug uptake (Mus musculus [18]): 0.21 % ID/g
Ratio (Nucleic Acid [19]): 0.8
Drug uptake (Spleen [20]): 0.53 % ID/g
Drug uptake (Muscle tissue [21]): 0.89 % ID/g
Drug uptake (Liver): 2.05 % ID/g
Ratio (Nucleic Acid [22]): 0.43
Drug uptake (Brain [23]): 0.38 % ID/g
Ratio (Nucleic Acid [24]): 0.88
Drug uptake (CCRF S-180): < 7%
Drug uptake (Blood [25]): 1.42 % ID/g
Drug uptake (Heart [26]): 0.63 % ID/g
Ratio (Nucleic Acid [27]): 2.5
Drug uptake (Lung [28]): 2.6 % ID/g
Drug uptake (Mus musculus [29]): 2.26 % ID/g
Ratio (Nucleic Acid [30]): 1.4
Drug uptake (Muscle tissue [31]): 0.47 % ID/g
logP [32]: 0.69
Ratio (Nucleic Acid [33]): 1.66
Drug uptake (Muscle tissue [34]): 2.07 % ID/g
Drug uptake (Brain [35]): 0.04 % ID/g
Drug uptake (Kidney [36]): 1.83 % ID/g
Drug uptake (Kidney [37]): 5.63 % ID/g
Ratio (Nucleic Acid [38]): 12.35
Drug uptake (Lung [39]): 0.19 % ID/g
SMILES: Cc1cc(NCCNC(=O)c2ccc([N+](=O)[O-])cc2[18F])n2ncc(C#N)c2n1
